Results as given in patent US7495027B2, “3-aryl-4-hydroxyfuranone compounds and the human and animal health use thereof” (Wyeth, priority 2003, dated 2009).
Values after ≈ are worked out from the molar mass of the structure shown. Where two headings read alike, the source gives them in different places.

Assays:
[1] = test system: staphylococci; assay: Minimum inhibitory concentration, microdilution broth method, staphylococci; format: cell-based; conditions: Mueller-Hinton broth, 18-22 hours at 35° C.; for MIC: Staphylococcus aureus
In short: (§1)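 MIC by microdilution, NCCLS M7-A5. Media: MH broth (staph, enterococci); MH + 5% lysed horse blood (strep). Strains incl. methicillin-, penicillin- and/or vancomycin-resistant clinical isolates.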

[2] = biological target: T1, S. aureus Enopyruvyl-UPD-N-acetylglucosamine reductase, Mur B (Staphylococcus aureus, UniProt P61431); assay: biochemical
T1 sequence (P61431 1-307): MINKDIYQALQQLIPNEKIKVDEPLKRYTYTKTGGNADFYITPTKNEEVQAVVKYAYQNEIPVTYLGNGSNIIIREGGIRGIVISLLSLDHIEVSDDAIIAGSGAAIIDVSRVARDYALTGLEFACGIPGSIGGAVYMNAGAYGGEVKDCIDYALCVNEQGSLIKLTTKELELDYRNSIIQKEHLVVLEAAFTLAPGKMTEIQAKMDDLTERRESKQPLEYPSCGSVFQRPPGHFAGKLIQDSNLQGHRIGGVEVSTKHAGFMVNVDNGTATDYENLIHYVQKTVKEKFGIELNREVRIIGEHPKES

[3] = biological target: E. coli Enopyruvyl-UPD-N-acetylglucosamine reductase, Mur B (Escherichia coli, UniProt P08373); assay: biochemical; conditions: (E) E. coli enzyme; for IC50: read-out: MurB IC50 (converted)
Sequence of E. coli Enopyruvyl-UPD-N-acetylglucosamine reductase, Mur B (P08373 whole entry): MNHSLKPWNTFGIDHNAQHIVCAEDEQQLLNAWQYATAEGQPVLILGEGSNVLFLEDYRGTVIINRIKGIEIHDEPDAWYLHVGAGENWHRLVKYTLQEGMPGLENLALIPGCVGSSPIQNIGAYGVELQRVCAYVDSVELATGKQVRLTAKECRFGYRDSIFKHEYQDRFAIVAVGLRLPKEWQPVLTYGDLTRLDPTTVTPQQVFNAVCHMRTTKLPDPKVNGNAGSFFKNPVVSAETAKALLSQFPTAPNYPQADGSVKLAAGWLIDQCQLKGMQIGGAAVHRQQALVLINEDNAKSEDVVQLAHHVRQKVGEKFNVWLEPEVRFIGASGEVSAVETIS

[4] = test system: enterococci; assay: Minimum inhibitory concentration, microdilution broth method, enterococci; format: cell-based; conditions: Mueller-Hinton broth, 18-22 hours at 35° C.; for MIC: Enterococcus faecalis
In short: as §1

[5] = biological target: T2, S. aureus Uridine-diphosphate-N-acetvimuramoyl: L-alanine lipase, MurC (Staphylococcus aureus, UniProt Q2FXJ0); assay: biochemical; conditions: (S) S. aureus enzyme; for IC50: read-out: MurC IC50 (converted)
T2 sequence (Q2FXJ0 1-437): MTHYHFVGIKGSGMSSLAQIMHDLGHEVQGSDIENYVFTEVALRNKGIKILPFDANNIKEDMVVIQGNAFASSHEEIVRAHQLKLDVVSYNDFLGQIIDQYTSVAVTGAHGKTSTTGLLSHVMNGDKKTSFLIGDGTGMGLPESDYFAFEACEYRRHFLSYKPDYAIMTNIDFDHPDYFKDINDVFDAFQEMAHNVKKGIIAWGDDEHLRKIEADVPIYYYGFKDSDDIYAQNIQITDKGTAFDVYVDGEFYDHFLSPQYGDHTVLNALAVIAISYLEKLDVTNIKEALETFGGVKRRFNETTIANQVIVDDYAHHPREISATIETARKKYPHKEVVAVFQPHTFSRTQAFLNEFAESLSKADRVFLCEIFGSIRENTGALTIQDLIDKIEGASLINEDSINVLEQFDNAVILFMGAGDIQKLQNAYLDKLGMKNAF
In short: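 MurC assay: enzyme (E. coli 100 μg/mL, S. aureus 70 μg/mL stock) with L-Ala and test compound, pre-incubated 10 min at 23 °C, then UDP-MurNac added, 10 min at 37 °C. Phosphate released detected by malachite green–molybdate at 660 nm; IC50 by linear regression.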

[6] = S. aureus GC 1131, read-out: MIC S. aureus GC 1131
[7] = S. aureus GC 4543, read-out: MIC S. aureus GC 4543
[8] = (S) S. aureus enzyme, read-out: MurB IC50 (converted)
[9] = E. faecalis GC 2242, read-out: MIC E. faecalis GC 2242
[10] = E. faecalis GC 4555, read-out: MIC E. faecalis GC 4555

Compound | MIC [1, 6] [µg/mL] | MIC [1, 7] [µg/mL] | IC50 [2, 8] [µM] | MurB IC50 [3] [µg/mL] | MIC [4, 9] [µg/mL] | MIC [4, 10] [µg/mL] | IC50 [5] [µM] | MIC S. aureus GC 1131 ([1]; S. aureus GC 1131) [µg/mL] | MIC S. aureus GC 4543 ([1]; S. aureus GC 4543) [µg/mL] | MurB IC50 ([2]; (S) S. aureus enzyme) [µg/mL] | MIC E. faecalis GC 2242 ([4]; E. faecalis GC 2242) [µg/mL] | MIC E. faecalis GC 4555 ([4]; E. faecalis GC 4555) [µg/mL] | MurC IC50 [5] | IC50 [3] [µM] | IC50 [2] [µM]
O=C1O/C(=C\c2cccc(-c3cccc(Cl)c3)c2)C(O)=C1c1cccc(Cl)c1 [Example 134] | > 128 | 1 (≈ 2.44 µM) | 4.89 | 4 | 4 (≈ 9.77 µM) | 8 (≈ 19.5 µM) | 51.3 | – | – | – | – | – | – | – | –
O=C1O/C(=C\c2cc(C(F)(F)F)ccc2Cl)C(O)=C1c1ccc(N2CCOCC2)c(F)c1 [Example 142] | – | – | – | 10 | – | – | – | 64 (≈ 136 µM) | >128 | 21 | >128 | >128 | >25 (S) μg/mL | – | –
Cc1cc(/C=C2\OC(=O)C(c3cc(Cl)cc(Cl)c3)=C2O)ccc1-c1ccccc1OS(C)(=O)=O [Example 39] | – | – | – | 8 | – | – | – | 2 (≈ 3.87 µM) | 4 (≈ 7.73 µM) | 4 | 4 (≈ 7.73 µM) | 8 (≈ 15.5 µM) | 8 (S) μg/mL | – | –
COc1cccc(C2=C(O)/C(=C/c3cccc4ccccc34)OC2=O)c1 [Example 72] | > 128 | > 128 | 58.1 | – | > 128 | > 128 | > 72.6 | – | – | – | – | – | – | 61 | –
CN(C)c1ccc(/C=C2\OC(=O)C(c3ccc(Cl)cc3)=C2O)c2ccccc12 [Example 78] | 32 (≈ 81.7 µM) | 32 (≈ 81.7 µM) | 33.2 | – | 64 (≈ 163 µM) | 64 (≈ 163 µM) | 53.6 | – | – | – | – | – | – | 7.66 | –
O=C1O/C(=C\c2ccc(Cl)cc2)C(O)=C1c1ccc(-c2ccccc2)c(F)c1 [Example 138] | 4 (≈ 10.2 µM) | 4 (≈ 10.2 µM) | 7.64 | – | 4 (≈ 10.2 µM) | 8 (≈ 20.4 µM) | 20.4 | – | – | – | – | – | – | 56 | –
O=C1O/C(=C\c2ccc(-c3ccccc3)cc2)C(O)=C1c1csc2ccccc12 [Example 143] | 8 (≈ 20.2 µM) | 8 (≈ 20.2 µM) | 10.1 | – | 4 (≈ 10.1 µM) | 32 (≈ 80.7 µM) | 12.6 | – | – | – | – | – | – | 17.7 | –
O=C1O/C(=C\c2ccccc2-c2ccc(Cl)cc2)C(O)=C1c1ccc(Cl)cc1 [Example 137] | 8 (≈ 19.5 µM) | 8 (≈ 19.5 µM) | 7.33 | – | 4 (≈ 9.77 µM) | 4 (≈ 9.77 µM) | 56.2 | – | – | – | – | – | – | 51.3 | –
COc1cc(/C=C2\OC(=O)C(c3cccc(Cl)c3)=C2O)ccc1-c1ccccc1Cl [Example 18] | 4 (≈ 9.11 µM) | 4 (≈ 9.11 µM) | 11.4 | – | 8 (≈ 18.2 µM) | 16 (≈ 36.4 µM) | 22.8 | – | – | – | – | – | – | 13.7 | –
O=C1O/C(=C\c2cccc3ccccc23)C(O)=C1c1ccc(-c2ccccc2)cc1 [R=H, R1=4-biphenyl, R2=1-naphthyl] | 8 (≈ 20.5 µM) | 4 (≈ 10.2 µM) | – | – | 4 (≈ 10.2 µM) | 16 (≈ 41 µM) | 48.7 | – | – | – | – | – | – | 12.8 | 25.6
COc1cc(/C=C2\OC(=O)C(c3cc(Cl)cc(Cl)c3)=C2O)ccc1-c1ccccc1C [Example 25] | 1 (≈ 2.21 µM) | 0.5 (≈ 1.1 µM) | 4.41 | – | 2 (≈ 4.41 µM) | 4 (≈ 8.82 µM) | 26.5 | – | – | – | – | – | – | 4.41 | –
Cc1cc(/C=C2\OC(=O)C(c3cccc(Cl)c3)=C2O)ccc1-c1ccccc1C(F)(F)F [Example 26] | 2 (≈ 4.38 µM) | 1 (≈ 2.19 µM) | 4.38 | – | 2 (≈ 4.38 µM) | 4 (≈ 8.76 µM) | 13.1 | – | – | – | – | – | – | 6.57 | –
COC(=O)c1ccc(C2=C(O)/C(=C/c3cccc4ccccc34)OC2=O)cc1 [Example 74] | 64 (≈ 172 µM) | > 128 | 26.9 | – | > 128 | > 128 | 48.3 | – | – | – | – | – | – | 59.1 | –
O=C1O/C(=C\c2ccc(Cl)cc2)C(O)=C1c1ccc2ccccc2c1 [Example 43] | 8 (≈ 22.9 µM) | 8 (≈ 22.9 µM) | 14.3 | – | 4 (≈ 11.5 µM) | 16 (≈ 45.9 µM) | 60.2 | – | – | – | – | – | – | 17.2 | –
Cc1ccccc1-c1ccc(/C=C2\OC(=O)C(c3cccc(Cl)c3)=C2O)cc1C [Example 28] | 1 (≈ 2.48 µM) | 0.5 (≈ 1.24 µM) | 7.45 | – | 2 (≈ 4.96 µM) | 4 (≈ 9.93 µM) | > 62.1 | – | – | – | – | – | – | 7.45 | –
O=Cc1cccc(C2=C(O)/C(=C/c3cccc4ccccc34)OC2=O)c1 [Example 76] | > 128 | > 128 | 14.6 | – | > 128 | > 128 | 52.6 | – | – | – | – | – | – | 20.4 | –
O=C1O/C(=C\c2ccccc2-c2cccc(Cl)c2)C(O)=C1c1cccc(Cl)c1 [Example 140] | 1 (≈ 2.44 µM) | 1 (≈ 2.44 µM) | 7.33 | – | 4 (≈ 9.77 µM) | 4 (≈ 9.77 µM) | 19.5 | – | – | – | – | – | – | 9.77 | –
O=C1O/C(=C\c2cccc3ccccc23)C(O)=C1c1cc(Cl)cc(Cl)c1 [Example 70] | 2 (≈ 5.22 µM) | 1 (≈ 2.61 µM) | 13 | – | 2 (≈ 5.22 µM) | 2 (≈ 5.22 µM) | 20.9 | – | – | – | – | – | – | 18.3 | –
COc1ccccc1-c1ccc(/C=C2\OC(=O)C(c3cc(Cl)cc(Cl)c3)=C2O)cc1OC [Example 19] | 2 (≈ 4.26 µM) | 2 (≈ 4.26 µM) | 21.3 | – | 8 (≈ 17 µM) | 8 (≈ 17 µM) | 40.5 | – | – | – | – | – | – | 42.6 | –
Cc1cc(/C=C2\OC(=O)C(c3cc(Cl)cc(Cl)c3)=C2O)ccc1-c1ccccc1C(F)(F)F [Example 27] | 0.5 (≈ 1.02 µM) | 0.5 (≈ 1.02 µM) | 4.07 | – | 1 (≈ 2.04 µM) | 2 (≈ 4.07 µM) | > 50.9 | – | – | – | – | – | – | 6.11 | –
COc1cc(/C=C2\OC(=O)C(c3cc(Cl)cc(Cl)c3)=C2O)ccc1-c1ccccc1Cl [Example 21] | 1 (≈ 2.11 µM) | 0.5 (≈ 1.06 µM) | 6.33 | – | 2 (≈ 4.22 µM) | 4 (≈ 8.44 µM) | 42.2 | – | – | – | – | – | – | 10.6 | –
O=C1O/C(=C\c2ccc(-c3ccccc3)cc2)C(O)=C1c1cccs1 [Example 144] | 16 (≈ 46.2 µM) | 16 (≈ 46.2 µM) | 28.9 | – | 32 (≈ 92.4 µM) | > 128 | 28.9 | – | – | – | – | – | – | 57.7 | –
COc1cc(/C=C2\OC(=O)C(c3cccc(Cl)c3)=C2O)ccc1-c1ccccc1C [Example 22] | 4 (≈ 9.55 µM) | 4 (≈ 9.55 µM) | 14.3 | – | 8 (≈ 19.1 µM) | 16 (≈ 38.2 µM) | 28.6 | – | – | – | – | – | – | 14.3 | –
